Columns and labels:
Assay type in all cases: in vivo
Ipomoea lacunosa [1] = test: Herbicidal activity, corn pot test, Example 76; settings: metalaxyl-M none, ten days after sowing
Method: In a glass container measuring 60 mm in inner diameter and 20 mm in height, 15 mg of a metalaxyl-M emulsifiable concentrate (emulsifiable concentrate containing 33.3% metalaxyl-M, manufactured by Syngenta under the trade name of Apron XL) and 25 corn seeds were placed. After capping this glass container, the metalaxyl-M emulsifiable concentrate was adhered to the corn seeds by shaking the glass container by hand. In the same manner, 33 mg of the metalaxyl-M emulsifiable concentrate was adhered to the corn seeds.
(§1) A plastic pot measuring 194 mm in inner diameter and 176 mm in height was filled with the soil. In this pot, 2 corn seeds were sown per 1 pot and 10 seeds of Ipomoea lacunosa were sown per 1 pot. On the day of sowing of the corn seeds, after sowing the corn seeds, a water diluted solution (24.5 mg of product/liter) of a flumioxazin granular wettable powder (granular wettable powder containing 51% flumioxazin, manufactured by Valent USA Corporation under the trade name of Valor SX), a water diluted solution (66.7 mg of product/liter) of a sulfentrazone granular wettable powder (granular wettable powder containing 75% sulfentrazone manufactured by FMC Corporation under the trade name of Cover), a water diluted solution (15 mg/liter) of saflufenacil and a water diluted solution (100 mg/liter) of oxyfluorfen were uniformly sprayed over a surface of the soil in each amount described in Tables 28 to 31, using a sprayer. The water diluted solutions of saflufenacil and oxyfluorfen were prepared by dissolving each predetermined amount of saflufenacil and oxyfluorfen in acetone containing 2% (w/v) Tween 20 and diluting each solution with water so as to adjust the concentration of acetone to 10% by volume.
Ten days after sowing the seeds of corn and Ipomoea lacunosa, herbicidal activity was examined.

Ipomoea lacunosa [2] = test: Herbicidal activity, corn pot test, Example 59; settings: pyraclostrobin none, twelve days after sowing
Method: In a glass container measuring 60 mm in inner diameter and 20 mm in height, 8 mg of a pyraclostrobin emulsifiable concentrate (emulsifiable concentrate containing 23.8% pyraclostrobin, manufactured by BASF under the trade name of Comet) and 25 corn seeds were placed. After capping a glass container, the pyraclostrobin emulsifiable concentrate was adhered to the corn seeds by shaking the glass container by hand. In the same manner, 22 mg of the pyraclostrobin emulsifiable concentrate was adhered to the corn seeds.
as §1, with “75% sulfentrazone,” for “75% sulfentrazone”, “Tables 22” for “Tables 28”, “to 25,” for “to 31,”
Twelve days after sowing the seeds of corn and Ipomoea lacunose, herbicidal activity was examined.

Aulacorthum solani [3] = test: Insecticidal effect (protective value), soybean pot test, Example 3; settings: day 7 after release
Method: (§2) The evaluation of the insecticidal effect was performed by determining the life and death of the insects at the time of the investigation and calculating the protective value according to the following equation; Protective Value (%)=100×(1−T/C) wherein the symbols have the following meanings;
(§3) C: The number of insects at the time of observation in an untreated section: and
(§4) T: The number of insects at the time of observation in a treated section.
(§5) Thereafter, the test pot was placed in a greenhouse.

Aulacorthum solani [4] = test: Insecticidal effect (protective value), soybean pot test, Example 2; settings: thiamethoxam 78.9 g/ha; flumioxazin none; day 6 after release
Method: as §2, §3, §4, §5

Ipomoea hederacea [5] = test: Herbicidal activity, corn pot test, Example 16; settings: azole seed treatment none, saflufenacil 30 g/ha, twelve days after sowing
Method: In a glass container measuring 60 mm in inner diameter and 20 mm in height, 8 μl of a prothioconazole emulsifiable concentrate (emulsifiable concentrate containing 25% prothioconazole, manufactured by Bayer Crop Science Inc. under the trade name of Proline) and 20 corn seeds were placed. The prothioconazole emulsifiable concentrate was adhered to the corn seeds by shaking this plastic cup by hand. In the same manner, 8 μl of a difenoconazole emulsifiable concentrate (emulsifiable concentrate containing 25% difenoconazole, manufactured by Syngenta under the trade name of Score) was adhered to 20 corn seeds. In the same manner, 50 mg of a tebuconazole suspension (suspension containing 20% tebuconazole, manufactured by Hokko Chemical Industry under the trade name of ONLY ONE Flowable) was adhered to 20 corn seeds.
A plastic pot measuring 194 mm in inner diameter and 176 mm in height was filled with the soil. In this pot, 3 corn seeds were sown per 1 pot and 10 seeds of Ipomoea hederacea were sown per 1 pot. […]

Spodoptera litura [6] = test: Insecticidal effect (protective value), corn pot test, Example 5; settings: day 3 after release
Method: as §2, §3, §4
(§6) In addition, the clothianidin suspension was attached to the corn seeds in a similar manner except that it was used in an amount of 217.5 μL.
The aqueous diluted solution of saflufenacil was prepared by dissolving a given amount of saflufenacil in acetone containing 2% (w/v) of Tween 20, and diluting this solution with water to an acetone concentration of 10% (v/v).
(§7) Thereafter, the test pot was placed in a greenhouse. On day 22 after corn sowing, 10 fourth-instar larvae of Spodoptera litura were released in the pot and the whole pot was then covered with a nylon cloth.
(§8) On day 3 after release of Spodoptera litura, the insecticidal effect was examined.

corn = test: Phytotoxicity to corn, Example 7; settings: day 11 after sowing
Method: (§9) The plastic cup was shaken by the hand so as to attach the clothianidin suspension to the corn seeds.
(§10) A soil was packed in a 1/5000a Wagner pot. The above corn seeds. were sown in the Wagner pot at a rate of one seed per pot, and the seeds of Ipomoea hederacea were sown in the pot at a rate of three seeds per pot. […] The aqueous diluted solution of saflufenacil was prepared by dissolving a given amount of saflufenacil in acetone containing 2% (w/v) of Tween 20, and diluting this solution with water to an acetone concentration of 10% (v/v).
(§11) On day 11 after sowing of the seeds of corn and Ipomoea hederacea, the herbicidal effect and phytotoxicity were examined.

Ipomoea hederacea [7] = test: Herbicidal effect, corn Wagner pot test, Example 7; settings: day 11 after sowing, scale 0 to 100
Method: as §9, §10, §11

Aulacorthum solani [8] = test: Insecticidal effect (protective value), soybean pot test, Example 1; settings: clothianidin 44.7 g/ha; flumioxazin none; day 6 after release
Method: as §2, §3, §4, §5

Ipomoea hederacea [9] = test: Herbicidal effect, soybean Wagner pot test, Example 6; settings: clothianidin 73 g/ha; flumioxazin none; day 11 after sowing; scale 0 to 100
Source text: (§12) A soil was packed in a 1/5000a Wagner pot. The above soybean seeds were sown in the Wagner pot at a rate of two seeds per pot, and the seeds of Ipomoea hederacea were sown in the pot at a rate of three seeds per pot.
(§13) On day 11 after sowing of the seeds of soybean and Ipomoea hederacea, the herbicidal effect and phytotoxicity were examined.

Spodoptera litura [10] = test: Insecticidal effect (protective value), corn pot test, Example 4; settings: flumioxazin none, day 3 after release
Method: as §2, §3, §4, §6, §7, §8

soybean = test: Phytotoxicity to soybean, Example 6; settings: clothianidin 73 g/ha; flumioxazin none; day 11 after sowing
Source text: as §12, §13

[11] = clothianidin none, saflufenacil 32 g/ha
[12] = clothianidin 340 g/ha, saflufenacil none
[13] = clothianidin 605 g/ha, saflufenacil none

Question: What does the source list for `CCOc1cc(Oc2ccc(C(F)(F)F)cc2Cl)ccc1[N+](=O)[O-]` [Oxyfluorfen, oxyfluorfen]?
Answer: Herbicidal activity (Ipomoea lacunosa [1]; oxyfluorfen 200 g/ha): 45; Herbicidal activity (Ipomoea lacunosa [2]; oxyfluorfen 200 g/ha): 45

Question: With `Cc1nn(-c2cc(NS(C)(=O)=O)c(Cl)cc2Cl)c(=O)n1C(F)F` [Sulfentrazone, sulfentrazone] as the compound, how does the “Protective Value” (Aulacorthum solani [3]; clothianidin none, sulfentrazone 200 g/ha) read?
Answer: Its value is 0%.

Question: And the Herbicidal activity (Ipomoea lacunosa [1]; sulfentrazone 100 g/ha)?
Answer: The Herbicidal activity was 40.

Question: And the Herbicidal activity (Ipomoea lacunosa [2]; sulfentrazone 100 g/ha)?
Answer: Its Herbicidal activity is 40.

Question: Which “Protective Value” (Aulacorthum solani [4]) does the source give for `CN1COCN(Cc2cnc(Cl)s2)/C1=N\[N+](=O)[O-]` [Thiamethoxam, thiamethoxam] here?
Answer: Its value is 86.9%.

Question: `CC(C)N(C)S(=O)(=O)NC(=O)c1cc(-n2c(=O)cc(C(F)(F)F)n(C)c2=O)c(F)cc1Cl` [Saflufenacil, saflufenacil] was tested. Which “Herbicidal activity on Ipomoea hederacea” value (Ipomoea hederacea [5]) did it give?
Answer: The value was 88.

Question: And the “Protective Value” (Spodoptera litura [6]; [11])?
Answer: The value was 0%.

Question: And the “Protective Value” (Spodoptera litura [6]; clothianidin none, saflufenacil 125 g/ha)?
Answer: Its value is 0%.

Question: And the “Phytotoxicity to Corn” value (corn; [11])?
Answer: Its value is “No harm”.

Question: And the Herbicidal activity (Ipomoea lacunosa [1]; saflufenacil 30 g/ha)?
Answer: Its Herbicidal activity is 45.

Question: What about the Herbicidal activity (Ipomoea lacunosa [2]; saflufenacil 30 g/ha) of the same compound?
Answer: The Herbicidal activity was 45.

Question: What about the “Evaluation of Effect on Weeds” value (Ipomoea hederacea [7]; [11]) of the same compound?
Answer: Its value is 50.

Question: `CN/C(=N\[N+](=O)[O-])NCc1cnc(Cl)s1` [Clothianidin, clothianidin] was tested. Which “Protective Value” (Aulacorthum solani [8]) did it give?
Answer: Its value is 59.1%.

Question: What about the “Evaluation of Effect on Weeds” value (Ipomoea hederacea [9]) of the same compound?
Answer: The value was 0.

Question: And the “Protective Value” (Spodoptera litura [10]; clothianidin 553 g/ha)?
Answer: The value was 30%.

Question: What about the “Protective Value” (Spodoptera litura [10]; clothianidin 984 g/ha) of the same compound?
Answer: The value was 65%.

Question: And the “Protective Value” (Aulacorthum solani [3]; clothianidin 55.3 g/ha, sulfentrazone none)?
Answer: The value was 55.2%.

Question: What about the “Protective Value” (Spodoptera litura [6]; clothianidin 272 g/ha, saflufenacil none) of the same compound?
Answer: The value was 30%.

Question: And the “Protective Value” (Spodoptera litura [6]; clothianidin 496 g/ha, saflufenacil none)?
Answer: Its value is 40%.

Question: And the “Phytotoxicity to Corn” value (corn; [12])?
Answer: Its value is “No harm”.

Question: What about the “Phytotoxicity to Corn” value (corn; [13]) of the same compound?
Answer: The value was “No harm”.

Question: And the “Phytotoxicity to Soybean” value (soybean)?
Answer: The value was “No harm”.

Question: What about the “Evaluation of Effect on Weeds” value (Ipomoea hederacea [7]; [12]) of the same compound?
Answer: The value was 0.

Question: And the “Evaluation of Effect on Weeds” value (Ipomoea hederacea [7]; [13])?
Answer: Its value is 0.

Reference: patent US8859463B2, “Method for controlling noxious organisms” (Sumitomo Chemical Company, Limited, priority 2009, dated 2014)
